Data reported in patent publication US9340577B2, “HLA binding motifs and peptides and their uses” (priority 1992, dated 2016).
pIC50: −log10 of the molar value. Read-outs that look alike come from different tables or passages of the source. No end group written: not given here.

Columns and labels:
Assay in all cases: biochemical
Format in all cases: binding
DR1 (DRB1*0101) = DR1 (DRB1*0101) (Homo sapiens, UniProt P01903+P01911, A100R/D57E/F55L/F60I/F76Y/I96L/L162R/M171V/P40L/Q125E/R42F/V115G/Y59C)
A31 (A*3101) = A31 (A*3101) (Homo sapiens, UniProt P04439, A270S/D185E/E176V/E277Q/F33T/G231S/G80R/H175R/I121M/I218V/I322F/K168Q/L300P/L318F/M331R/P217A/Q94H/R138Q/T323A/T345S/T97I/V358M)
HLA-A11 (A*1101) = HLA-A11 (A*1101) (Homo sapiens, UniProt P04439, A114D/D185E/E176A/F33Y/L180Q/S129P/T187R)
A*6801 = A*6801 (Homo sapiens, UniProt P04439, A269V/D185E/E176V/E277Q/E87N/F33Y/G231S/I121M/I166T/I218V/L180W/L300P/L318F/N151K/P208A/P217A/Q86R/R169H/T345S)
HLA-A3.2 (A*0301) = HLA-A3.2 (A*0301) (Homo sapiens, UniProt P04439)
A*3301 = A*3301 (Homo sapiens, UniProt P04439, A270S/D185E/E176V/E277Q/E87N/F33T/G231S/H175R/I121M/I218V/I322F/K168Q/K210R/L300P/L318F/M331R/P217A/Q86R/Q94H/R138Q/T323A/T345S/T97I/V358M/Y195H)

Molecule | pIC50 (DR1 (DRB1*0101)) | pIC50 (DR1 (DRB1*0101); read-out: DRB1*0101) | pIC50 (A31 (A*3101)) | pIC50 (HLA-A11 (A*1101)) | pIC50 (A*6801) | pIC50 (HLA-A3.2 (A*0301)) | pIC50 (A*3301)
KEILDEAYLMAGVGS [Peptide 9014.0170] | 6.01 | – | – | – | – | – | –
KIFGSLAHLPESFDGDPA [Peptide 9014.0247] | 6.02 | – | – | – | – | – | –
KLFGSLAFLPESFDGDPA [Peptide 9014.0234] | 6.10 | – | – | – | – | – | –
ETEYVEPLTPSGAMP [Peptide 9014.0148] | 7.64 | – | – | – | – | – | –
ITDIGLARLLDIDET [Peptide 9014.0177] | 6.04 | – | – | – | – | – | –
CWMIDSEARPRFREL [Peptide 9014.0219] | 7.26 | – | – | – | – | – | –
GTDMKLRLLASPETH [Peptide 9014.0100] | 7.89 | – | – | – | – | – | –
KIFGSLTFLPESFDGDPA [Peptide 9014.0244] | 6.63 | – | – | – | – | – | –
DMKYRLPASPETHLD [Peptide 9014.0131] | 6.11 | – | – | – | – | – | –
ETELVEPLVPSGAMP [Peptide 9014.0156] | 7.07 | – | – | – | – | – | –
GTDMKLRLVASPETH [Peptide 9014.0104] | 7.77 | – | – | – | – | – | –
CWMIDSELRPRFREL [Peptide 9014.0223] | 6.36 | – | – | – | – | – | –
GTDWKLRLPASPETH [Peptide 9014.0094] | 6.10 | – | – | – | – | – | –
ETEVVEPLTPSGAMP [Peptide 9014.0146] | 7.40 | – | – | – | – | – | –
ETELVEPLFPSGAMP [Peptide 9014.0150] | 6.52 | – | – | – | – | – | –
ETEIVEPLTPSGAMP [Peptide 9014.0144] | 6.32 | – | – | – | – | – | –
KIFGSLAWLPESFDGDPA [Peptide 9014.0252] | 6.92 | – | – | – | – | – | –
DMKLRLIASPETHLD [Peptide 9014.0118] | 7.92 | – | – | – | – | – | –
ETELVEPLHPSGAMP [Peptide 9014.0151] | 7.51 | – | – | – | – | – | –
ETEHVEPLTPSGAMP [Peptide 9014.0143] | 7.21 | – | – | – | – | – | –
CWMIDSEVRPRFREL [Peptide 9014.0227] | 6.12 | – | – | – | – | – | –
ETELVEPLAPSGAMP [Peptide 9014.0149] | 7.35 | – | – | – | – | – | –

Molecule | pIC50 (DR1 (DRB1*0101)) | pIC50 (DR1 (DRB1*0101); read-out: DRB1*0101) | pIC50 (A31 (A*3101)) | pIC50 (HLA-A11 (A*1101)) | pIC50 (A*6801) | pIC50 (HLA-A3.2 (A*0301)) | pIC50 (A*3301)
GTDYKLRLPASPETH [Peptide 9014.0095] | 6.23 | – | – | – | – | – | –
RTTVKTITLSAELPK [Peptide 9014.0065] | 6.14 | – | – | – | – | – | –
DMKLRLNASPETHLD [Peptide 9014.0120] | 6.04 | – | – | – | – | – | –
KIFGSLNFLPESFDGDPA [Peptide 9014.0242] | 6.65 | – | – | – | – | – | –
CC[C@H](C)[C@H](NC(=O)[C@@H](NC(=O)[C@H](CCCCN)NC(=O)[C@H](Cc1ccccc1)NC(=O)[C@@H](NC(=O)[C@@H](NC(=O)[C@@H](N)CCCNC(=N)N)[C@@H](C)O)[C@@H](C)O)[C@@H](C)O)C(=O)N[C@H](C(=O)N[C@H](C(=O)N[C@@H](CO)C(=O)N[C@@H](C)C(=O)N[C@@H](CCC(=O)O)C(=O)N[C@@H](CC(C)C)C(=O)N1CCC[C@H]1C(=O)N[C@@H](CCCCN)C(=O)O)C(C)C)[C@@H](C)O [Peptide 9014.0054] | 7.26 | – | – | – | – | – | –
KIFGSLAYLPESFDGDPA [Peptide 9014.0253] | 6.20 | – | – | – | – | – | –
KIFGSLAILPESFDGDPA [Peptide 9014.0248] | 6.42 | – | – | – | – | – | –
ETEWVEPLTPSGAMP [Peptide 9014.0147] | 7.62 | – | – | – | – | – | –
KIFGSLAVLPESFDGDPA [Peptide 9014.0251] | 6.64 | – | – | – | – | – | –
GTDMKLRLFASPETH [Peptide 9014.0097] | 6.77 | – | – | – | – | – | –
GTDMKLRLTASPETH [Peptide 9014.0103] | 7.35 | – | – | – | – | – | –
CC(C)[C@H](NC(=O)[C@@H]1CCCN1C(=O)[C@H](CCCCN)NC(=O)[C@H](CO)NC(=O)[C@H](CC(N)=O)NC(=O)[C@H](CC(N)=O)NC(=O)[C@H](CO)NC(=O)[C@H](CO)NC(=O)[C@H](Cc1ccccc1)NC(=O)[C@H](CO)NC(=O)[C@@H]1CCCN1C(=O)[C@@H](N)CCCCN)C(=O)N[C@@H](CCC(=O)O)C(=O)N[C@@H](CC(=O)O)C(=O)N[C@@H](CCCCN)C(=O)O [Peptide 9014.0037] | 7.66 | – | – | – | – | – | –
KVFGSLAFLPESFDGDPA [Peptide 9014.0235] | 6.17 | – | – | – | – | – | –
824.22 (AAKTAAAFA; also: non-natural residue (46)) [Peptide 824.22] | – | 5.30 | – | – | – | – | –
SVAALYWYR [Peptide 88.0341] | – | – | 8.43 | 8.35 | 8.39 | 7.49 | 9.06
VSIEWRQRR [Peptide 9017.0089] | – | – | 8.82 | 7.89 | 7.39 | 5.87 | 8.15
HLFDYSWYK [Peptide 76.0165] | – | – | 7.44 | 9.00 | 8.68 | 8.39 | 7.21
SQIEHWKLIR [Peptide 88.0213] | – | – | 6.29 | 7.07 | 5.88 | 4.78 | < 4.70
LTTNIHPAK [Peptide 88.0347] | – | – | 6.64 | 7.74 | 7.80 | 7.36 | 6.24
TVSATQLVK [Peptide 1589.08] | – | – | 4.84 | 8.36 | 7.51 | 8.19 | < 4.70
VVPAYNISK [Peptide 88.0397] | – | – | < 4.70 | 7.85 | 6.00 | 7.16 | < 4.70
AQVLHLLKRK [Peptide 1587.52] | – | – | 4.74 | 6.51 | < 4.70 | 6.47 | < 4.70

Molecule | pIC50 (DR1 (DRB1*0101)) | pIC50 (DR1 (DRB1*0101); read-out: DRB1*0101) | pIC50 (A31 (A*3101)) | pIC50 (HLA-A11 (A*1101)) | pIC50 (A*6801) | pIC50 (HLA-A3.2 (A*0301)) | pIC50 (A*3301)
AACWRSRRR [Peptide 78.0322] | – | – | 6.39 | 4.73 | < 4.70 | 5.25 | 4.76
FLSALKLFLK [Peptide 1587.38] | – | – | 6.01 | 6.78 | 5.81 | 6.15 | 5.59
LLQAVRIIK [Peptide 9017.0068] | – | – | 6.48 | 6.49 | 4.80 | 6.97 | 5.52
AFDLSHFLK [Peptide 9017.0063] | – | – | 6.19 | 7.34 | 6.67 | 6.11 | 5.84
GTRQARKNRR [Peptide 9017.0200] | – | – | 7.25 | 5.53 | 5.83 | 5.81 | 5.08
VTYNSEVQR [Peptide 1589.29] | – | – | 7.40 | 7.60 | 7.64 | 7.15 | 6.82
KIKPPLPSVR [Peptide 9017.0234] | – | – | 8.09 | 5.16 | 4.83 | 5.95 | 5.46
TTSAELPK [Peptide 1556.23] | – | – | < 4.70 | 6.66 | 5.85 | 4.71 | < 4.70
VTIKIGGQIR [Peptide 1516.05] | – | – | 5.94 | 6.41 | 7.34 | 4.89 | < 4.70
EFTAFLDAFK [Peptide 88.0179] | – | – | 4.78 | 6.01 | 6.90 | 5.24 | 7.85
GTMCRHYKR [Peptide 1587.34] | – | – | 7.70 | 7.51 | 7.25 | 6.21 | 6.65
WTYFDTYMR [Peptide 88.0346] | – | – | 6.48 | 6.53 | 8.42 | < 4.70 | 7.02
VTIYYGVPVWR [Peptide 1525.04] | – | – | 8.40 | 8.52 | 8.47 | 6.04 | 7.29
CC(C)C[C@H](NC(=O)[C@H](Cc1c[nH]cn1)NC(=O)[C@H](CO)NC(=O)[C@H](CO)NC(=O)[C@H](Cc1c[nH]cn1)NC(=O)[C@H](C)NC(=O)[C@@H](N)CCCNC(=N)N)C(=O)N[C@@H](CCCCN)C(=O)O [Peptide 1556.70] | – | – | 6.21 | 7.74 | 5.54 | 7.57 | < 4.70
VTIRVGGQLR [Peptide 1516.07] | – | – | 7.49 | 7.77 | 7.55 | 5.49 | 5.03
GLYYWCDGEK [Peptide 88.0229] | – | – | 5.29 | 7.62 | 5.00 | 6.97 | < 4.70
GTVFGILIKR [Peptide 9012.0243] | – | – | 7.34 | 7.57 | 7.74 | 5.59 | 5.50
QTCALYWFR [Peptide 88.0361] | – | – | 7.29 | 7.19 | 7.74 | 5.71 | 7.72
LTSQIEHWK [Peptide 88.0439] | – | – | 5.05 | 7.85 | 7.62 | 5.31 | < 4.70
CFFTRTWSR [Peptide 88.0382] | – | – | 8.37 | 5.83 | 7.28 | 4.87 | 8.52
TILWKDIFHR [Peptide 9012.0223] | – | – | 7.48 | 8.00 | 7.59 | 5.71 | 7.96
